Source: patent US12371428B2 (Exelixis, Inc., priority 2019, dated 2025)

Columns and labels:
Type in all cases: cell-based
[1] = molecular target: AXL (phospho-AXL, Gas6-stimulated A-172 glioblastoma cells) (Homo sapiens (Human), UniProt P30530); test: AXL autophosphorylation ELISA in A-172 cells (Example E); settings: cellular activity; AXL autophosphorylation ELISA in A-172 cells; read-out: Axl IC50
Method in brief: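 Phospho-AXL was measured by ELISA in lysates of Gas6-stimulated A-172 cells, starved 24 h in serum-free medium and exposed 1 h to an 8-point compound dilution at 0.3% DMSO.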

[2] = molecular target: Met (phospho-Met, HGF-stimulated PC-3 prostate cancer cells) (Homo sapiens (Human), UniProt P08581); test: Met autophosphorylation ELISA in PC-3 cells (Example F); settings: cellular activity; Met autophosphorylation ELISA in PC-3 cells; read-out: c-Met IC50
Method in brief: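 Sandwich ELISA for phospho-Met (panTyr) in PC-3 lysates. Cells starved 3 h serum-free, compound 1 h (8-pt curve, 0.3% DMSO), HGF 100 ng/mL 10 min. 100% = HGF + DMSO; 0% = HGF + reference inhibitor. IC50 by 4-parameter fit.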

[3] = molecular target: KDR (phospho-KDR, VEGF165-stimulated HUVEC cells) (Homo sapiens (Human), UniProt P35968); test: KDR autophosphorylation ELISA in HUVEC cells (Example G); settings: cellular activity; KDR autophosphorylation ELISA in HUVEC cells
Method in brief: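 First, endothelial cells were cultured a day, then kept without serum for another day. Next came 1 h with serially diluted compound, a brief 5 min VEGF165 stimulus (100 ng/mL), rapid lysis, and ELISA detection of receptor phosphorylation relative to stimulated and non-stimulated controls.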

[4] = molecular target: Mer (phospho-Mer, MERTK-transfected 293A cells) (Homo sapiens (Human), UniProt Q12866); test: Mer autophosphorylation ELISA in transient transfected 293A cells (Example H); settings: cellular activity; Mer autophosphorylation ELISA in transient transfected 293A cells
Method in brief: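 IC50 from phospho-Mer ELISA of MERTK-transfected 293A cell lysates after 1 h treatment with serially diluted compound in serum-free medium.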

KDR (phospho-KDR, VEGF165-stimulated HUVEC cells), sequence (P35968 20-1356): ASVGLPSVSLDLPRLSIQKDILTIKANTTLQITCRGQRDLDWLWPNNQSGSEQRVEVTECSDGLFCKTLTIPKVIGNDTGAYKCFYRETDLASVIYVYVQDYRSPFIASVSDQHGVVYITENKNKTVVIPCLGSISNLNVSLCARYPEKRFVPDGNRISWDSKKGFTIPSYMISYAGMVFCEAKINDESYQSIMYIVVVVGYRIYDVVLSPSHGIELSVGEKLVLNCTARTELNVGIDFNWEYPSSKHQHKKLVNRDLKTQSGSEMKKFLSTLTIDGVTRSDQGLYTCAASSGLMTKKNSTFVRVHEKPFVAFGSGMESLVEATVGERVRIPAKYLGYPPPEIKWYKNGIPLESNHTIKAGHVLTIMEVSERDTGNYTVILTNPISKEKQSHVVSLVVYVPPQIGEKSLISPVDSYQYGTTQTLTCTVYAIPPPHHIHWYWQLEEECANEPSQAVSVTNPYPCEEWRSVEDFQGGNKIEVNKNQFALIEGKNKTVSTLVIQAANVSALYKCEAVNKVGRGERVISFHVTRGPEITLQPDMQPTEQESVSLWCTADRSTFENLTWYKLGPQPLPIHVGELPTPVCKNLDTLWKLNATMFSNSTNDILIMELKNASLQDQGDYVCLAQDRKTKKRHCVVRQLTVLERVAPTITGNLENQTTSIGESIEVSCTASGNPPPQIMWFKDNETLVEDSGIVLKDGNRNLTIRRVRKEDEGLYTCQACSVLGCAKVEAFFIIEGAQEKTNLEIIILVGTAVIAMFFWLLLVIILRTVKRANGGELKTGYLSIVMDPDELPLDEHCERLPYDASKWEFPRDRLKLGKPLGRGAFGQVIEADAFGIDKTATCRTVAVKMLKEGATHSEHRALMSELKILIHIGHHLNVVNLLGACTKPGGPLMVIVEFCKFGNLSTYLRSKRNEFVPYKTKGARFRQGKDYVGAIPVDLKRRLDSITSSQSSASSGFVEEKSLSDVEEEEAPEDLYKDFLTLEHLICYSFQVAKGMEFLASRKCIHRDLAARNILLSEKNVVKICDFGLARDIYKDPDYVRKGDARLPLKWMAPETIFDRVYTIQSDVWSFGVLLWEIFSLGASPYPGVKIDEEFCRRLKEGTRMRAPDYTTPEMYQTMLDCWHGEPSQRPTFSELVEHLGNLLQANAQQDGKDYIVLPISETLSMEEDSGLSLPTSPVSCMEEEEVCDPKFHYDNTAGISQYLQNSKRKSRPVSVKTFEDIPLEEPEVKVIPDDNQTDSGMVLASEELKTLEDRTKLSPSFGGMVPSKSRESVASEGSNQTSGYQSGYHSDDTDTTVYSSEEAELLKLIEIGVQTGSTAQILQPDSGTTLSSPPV
AXL (phospho-AXL, Gas6-stimulated A-172 glioblastoma cells), sequence (P30530 26-894): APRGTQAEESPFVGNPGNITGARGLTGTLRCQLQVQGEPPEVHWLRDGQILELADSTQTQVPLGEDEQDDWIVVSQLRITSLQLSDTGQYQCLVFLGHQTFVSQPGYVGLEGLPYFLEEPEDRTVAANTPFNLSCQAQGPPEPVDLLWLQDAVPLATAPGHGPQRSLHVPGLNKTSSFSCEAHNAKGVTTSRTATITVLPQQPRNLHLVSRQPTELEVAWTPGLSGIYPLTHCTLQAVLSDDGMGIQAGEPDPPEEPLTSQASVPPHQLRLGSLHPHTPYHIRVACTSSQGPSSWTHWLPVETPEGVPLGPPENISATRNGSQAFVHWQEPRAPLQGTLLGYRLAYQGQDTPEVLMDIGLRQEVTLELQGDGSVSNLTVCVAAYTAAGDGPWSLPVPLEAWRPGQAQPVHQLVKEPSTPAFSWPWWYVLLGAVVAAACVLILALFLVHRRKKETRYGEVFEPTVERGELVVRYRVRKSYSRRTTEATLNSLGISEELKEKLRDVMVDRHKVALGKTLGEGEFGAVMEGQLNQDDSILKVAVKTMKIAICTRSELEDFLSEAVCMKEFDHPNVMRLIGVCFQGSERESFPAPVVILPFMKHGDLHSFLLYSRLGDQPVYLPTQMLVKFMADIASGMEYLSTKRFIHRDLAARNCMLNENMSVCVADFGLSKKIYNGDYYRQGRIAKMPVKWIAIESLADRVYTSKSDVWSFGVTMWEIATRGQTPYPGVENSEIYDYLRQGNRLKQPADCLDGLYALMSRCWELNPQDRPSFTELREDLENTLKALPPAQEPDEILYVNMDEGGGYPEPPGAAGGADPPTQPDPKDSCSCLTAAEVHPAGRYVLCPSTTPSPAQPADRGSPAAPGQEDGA
Mer (phospho-Mer, MERTK-transfected 293A cells), sequence (Q12866 21-999): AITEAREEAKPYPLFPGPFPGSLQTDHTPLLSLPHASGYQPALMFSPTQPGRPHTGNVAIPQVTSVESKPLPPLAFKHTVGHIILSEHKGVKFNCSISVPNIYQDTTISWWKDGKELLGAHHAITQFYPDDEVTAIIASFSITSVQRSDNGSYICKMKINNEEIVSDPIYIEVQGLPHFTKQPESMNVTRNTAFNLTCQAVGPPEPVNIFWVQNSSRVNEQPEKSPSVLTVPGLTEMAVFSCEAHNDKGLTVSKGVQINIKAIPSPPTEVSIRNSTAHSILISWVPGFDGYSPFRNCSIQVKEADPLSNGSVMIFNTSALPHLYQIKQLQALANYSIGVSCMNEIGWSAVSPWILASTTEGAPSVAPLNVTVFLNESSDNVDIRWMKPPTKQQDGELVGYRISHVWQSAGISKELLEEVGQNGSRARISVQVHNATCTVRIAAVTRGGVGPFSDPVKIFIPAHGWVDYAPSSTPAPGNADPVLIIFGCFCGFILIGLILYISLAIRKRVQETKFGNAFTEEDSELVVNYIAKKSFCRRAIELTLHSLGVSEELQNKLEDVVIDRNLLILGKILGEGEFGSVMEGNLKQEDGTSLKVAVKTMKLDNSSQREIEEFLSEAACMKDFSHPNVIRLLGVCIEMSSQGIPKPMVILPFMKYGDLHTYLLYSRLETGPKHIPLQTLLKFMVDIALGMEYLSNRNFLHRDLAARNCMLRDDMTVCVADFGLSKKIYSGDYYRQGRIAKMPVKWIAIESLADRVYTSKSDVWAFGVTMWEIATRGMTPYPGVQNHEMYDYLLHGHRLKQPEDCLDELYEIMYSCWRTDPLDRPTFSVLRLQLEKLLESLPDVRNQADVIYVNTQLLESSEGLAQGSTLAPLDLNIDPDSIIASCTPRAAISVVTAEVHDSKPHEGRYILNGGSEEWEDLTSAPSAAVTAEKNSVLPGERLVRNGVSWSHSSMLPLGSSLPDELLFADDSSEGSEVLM
Met (phospho-Met, HGF-stimulated PC-3 prostate cancer cells), sequence (P08581 25-1390): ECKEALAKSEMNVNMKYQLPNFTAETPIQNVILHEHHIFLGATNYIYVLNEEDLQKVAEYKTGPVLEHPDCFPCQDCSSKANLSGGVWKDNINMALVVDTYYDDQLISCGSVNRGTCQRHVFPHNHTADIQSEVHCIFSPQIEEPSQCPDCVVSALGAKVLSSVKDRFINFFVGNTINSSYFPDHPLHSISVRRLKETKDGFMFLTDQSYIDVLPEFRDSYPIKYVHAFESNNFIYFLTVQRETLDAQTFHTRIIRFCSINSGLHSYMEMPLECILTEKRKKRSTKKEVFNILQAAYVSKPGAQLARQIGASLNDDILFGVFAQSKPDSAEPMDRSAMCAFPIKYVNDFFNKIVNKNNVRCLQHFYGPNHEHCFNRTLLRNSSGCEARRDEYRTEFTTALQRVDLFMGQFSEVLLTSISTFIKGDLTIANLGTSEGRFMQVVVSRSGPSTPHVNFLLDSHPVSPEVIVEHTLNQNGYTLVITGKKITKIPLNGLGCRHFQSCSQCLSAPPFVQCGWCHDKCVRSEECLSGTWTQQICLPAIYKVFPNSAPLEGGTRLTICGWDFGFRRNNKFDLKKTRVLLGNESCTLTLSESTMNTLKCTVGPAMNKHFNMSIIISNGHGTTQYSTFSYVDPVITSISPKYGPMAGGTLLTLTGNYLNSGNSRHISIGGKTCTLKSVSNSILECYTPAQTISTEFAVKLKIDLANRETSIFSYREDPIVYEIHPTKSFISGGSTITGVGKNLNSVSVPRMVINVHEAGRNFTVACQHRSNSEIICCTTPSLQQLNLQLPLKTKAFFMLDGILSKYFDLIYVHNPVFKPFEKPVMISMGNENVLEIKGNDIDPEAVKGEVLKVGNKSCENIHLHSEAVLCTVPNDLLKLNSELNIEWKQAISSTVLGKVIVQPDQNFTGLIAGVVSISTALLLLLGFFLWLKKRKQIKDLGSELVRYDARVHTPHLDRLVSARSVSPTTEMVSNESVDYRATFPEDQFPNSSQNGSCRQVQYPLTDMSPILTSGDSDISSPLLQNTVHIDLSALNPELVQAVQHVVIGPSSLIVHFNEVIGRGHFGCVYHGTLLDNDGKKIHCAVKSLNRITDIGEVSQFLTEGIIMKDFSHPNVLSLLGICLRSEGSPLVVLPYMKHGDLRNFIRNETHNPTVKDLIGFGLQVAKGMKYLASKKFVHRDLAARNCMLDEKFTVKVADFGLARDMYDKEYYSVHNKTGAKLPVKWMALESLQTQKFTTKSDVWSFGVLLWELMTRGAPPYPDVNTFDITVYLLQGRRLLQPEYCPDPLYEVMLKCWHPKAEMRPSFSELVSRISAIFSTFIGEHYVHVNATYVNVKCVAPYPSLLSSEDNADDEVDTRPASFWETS

Row | SMILES | IC50 [1] [nM] | IC50 [2] [nM] | IC50 [3] [nM] | IC50 [4] [nM]
1 | COCCOc1cc2nccc(Oc3ccc(NC(=O)c4c(C)cc(C)n(-c5ccc(F)cc5)c4=O)cc3F)c2nc1OC [Compound 485, N-[3-fluoro-4-[[6-methoxy-7-(2-methoxyethoxy)-1,5-naphthyridin-4-yl]oxy]phenyl]-1-(4-fluorophenyl)-4,6-dimethyl-2-oxopyridine-3-carboxamide] | < 100 | < 100 | < 100 | < 100
2 | COCCOc1cc2nccc(Oc3ccc(NC(=O)c4cn(C)c(C)c(-c5ccc(F)cc5)c4=O)cc3F)c2nc1OC [Compound 486, N-[3-fluoro-4-[[6-methoxy-7-(2-methoxyethoxy)-1,5-naphthyridin-4-yl]oxy]phenyl]-5-(4-fluorophenyl)-1,6-dimethyl-4-oxopyridine-3-carboxamide] | < 100 | < 100 | < 100 | < 100
3 | COCCOc1cc2nccc(Oc3ccc(NC(=O)c4c(C)nc(C)c(-c5ccc(F)cc5C)c4O)cc3F)c2nc1OC [Compound 487, N-[3-fluoro-4-[[6-methoxy-7-(2-methoxyethoxy)-1,5-naphthyridin-4-yl]oxy]phenyl]-5-(4-fluoro-2-methylphenyl)-4-hydroxy-2,6-dimethylpyridine-3-carboxamide] | < 100 | < 100 | < 100 | < 100
4 | COc1cc2nccc(Oc3ccc(NC(=O)c4nnc(C)c(-c5ccc(F)cc5)c4Cl)cc3F)c2nc1OC [Compound 488, 4-chloro-N-[4-[(6,7-dimethoxy-1,5-naphthyridin-4-yl)oxy]-3-fluorophenyl]-5-(4-fluorophenyl)-6-methylpyridazine-3-carboxamide] | 100 to 300 | > 300 | > 300 | < 100
5 | COc1cc2nccc(Oc3ccc(NC(=O)c4nnc(C)c(-c5ccc(F)cc5C)c4OC)cc3F)c2nc1OC [Compound 489, N-[4-[(6,7-dimethoxy-1,5-naphthyridin-4-yl)oxy]-3-fluorophenyl]-5-(4-fluoro-2-methylphenyl)-4-methoxy-6-methylpyridazine-3-carboxamide] | < 100 | < 100 | < 100 | < 100
6 | COc1cc2nccc(Oc3ccc(NC(=O)c4c(C)ncc(Br)c4O)cc3F)c2nc1OC [Compound 490, 5-bromo-N-[4-[(6,7-dimethoxy-1,5-naphthyridin-4-yl)oxy]-3-fluorophenyl]-4-hydroxy-2-methylpyridine-3-carboxamide] | 100 to 300 | < 100 | < 100 | < 100
7 | COc1cc2nccc(Oc3ccc(NC(=O)c4cn5cc(C)oc5c(-c5ccc(F)cc5)c4=O)cc3F)c2nc1OC [Compound 491, N-[4-[(6,7-dimethoxy-1,5-naphthyridin-4-yl)oxy]-3-fluorophenyl]-8-(4-fluorophenyl)-2-methyl-7-oxo-[1,3]oxazolo[3,2-a]pyridine-6-carboxamide] | < 100 | < 100 | > 300 | < 100
8 | Cc1ccc(C(=O)Nc2ccc(Oc3ccnc4cnc(Cl)cc34)c(F)c2)c(=O)n1-c1ccc(F)cc1 [Compound 496, N-[4-[(6-chloro-1,7-naphthyridin-4-yl)oxy]-3-fluorophenyl]-1-(4-fluorophenyl)-6-methyl-2-oxopyridine-3-carboxamide] | < 100 | < 100 | < 100 | < 100
9 | Cc1ncc(C(=O)Nc2ccc(Oc3ccnc4cnc(Cl)cc34)c(F)c2)c(=O)n1-c1ccc(F)cc1 [Compound 497, N-[4-[(6-chloro-1,7-naphthyridin-4-yl)oxy]-3-fluorophenyl]-1-(4-fluorophenyl)-2-methyl-6-oxopyrimidine-5-carboxamide] | < 100 | < 100 | > 300 | < 100
10 | Cc1cnc(C(=O)Nc2ccc(Oc3ccnc4cnc(Cl)cc34)c(F)c2)c(=O)n1-c1ccc(F)cc1 [Compound 498, N-[4-[(6-chloro-1,7-naphthyridin-4-yl)oxy]-3-fluorophenyl]-4-(4-fluorophenyl)-5-methyl-3-oxopyrazine-2-carboxamide] | < 100 | < 100 | > 300 | < 100
11 | COc1cc2c(Oc3ccc(NC(=O)c4cnc(C)n(-c5ccc(F)cc5)c4=O)cc3F)ccnc2cn1 [Compound 499, N-[3-fluoro-4-[(6-methoxy-1,7-naphthyridin-4-yl)oxy]phenyl]-1-(4-fluorophenyl)-2-methyl-6-oxopyrimidine-5-carboxamide] | < 100 | < 100 | 100 to 300 | < 100
12 | COc1cc2c(Oc3ccc(NC(=O)c4ncc(C)n(-c5ccc(F)cc5)c4=O)cc3F)ccnc2cn1 [Compound 500, N-[3-fluoro-4-[(6-methoxy-1,7-naphthyridin-4-yl)oxy]phenyl]-4-(4-fluorophenyl)-5-methyl-3-oxopyrazine-2-carboxamide] | < 100 | < 100 | 100 to 300 | < 100

More lines, now with the values ahead:

Row | IC50 [1] [nM] | IC50 [2] [nM] | IC50 [3] [nM] | IC50 [4] [nM] | SMILES
13 | < 100 | < 100 | < 100 | < 100 | COc1nc2c(Oc3ccc(NC(=O)c4c(C)nc(C)c(-c5ccc(F)cc5C)c4O)cc3F)ccnc2cc1C [Compound 471, N-[3-fluoro-4-[(6-methoxy-7-methyl-1,5-naphthyridin-4-yl)oxy]phenyl]-5-(4-fluoro-2-methylphenyl)-4-hydroxy-2,6-dimethylpyridine-3-carboxamide]
14 | < 100 | < 100 | < 100 | < 100 | COc1nc2c(Oc3ccc(NC(=O)c4n[nH]c(C)c(-c5ccc(F)cc5)c4=O)cc3F)ccnc2cc1C [Compound 472, N-[3-fluoro-4-[(6-methoxy-7-methyl-1,5-naphthyridin-4-yl)oxy]phenyl]-5-(4-fluorophenyl)-6-methyl-4-oxo-1H-pyridazine-3-carboxamide]
15 | < 100 | > 300 | > 300 | < 100 | COc1nc2c(Oc3ccc(NC(=O)c4n[nH]c(C)c(-c5ccc(F)cc5C)c4=O)cc3F)ccnc2cc1C [Compound 473, N-[3-fluoro-4-[(6-methoxy-7-methyl-1,5-naphthyridin-4-yl)oxy]phenyl]-5-(4-fluoro-2-methylphenyl)-6-methyl-4-oxo-1H-pyridazine-3-carboxamide]
16 | < 100 | < 100 | < 100 | < 100 | C=C(C)c1cnc2c(Oc3ccc(NC(=O)c4c(C)ncc(-c5ccc(F)cc5C)c4O)cc3F)ccnc2c1 [Compound 474, 5-(4-fluoro-2-methylphenyl)-N-[3-fluoro-4-[(7-prop-1-en-2-yl-1,5-naphthyridin-4-yl)oxy]phenyl]-4-hydroxy-2-methylpyridine-3-carboxamide]
17 | < 100 | < 100 | < 100 | < 100 | C=C(C)c1cnc2c(Oc3ccc(NC(=O)c4nn(CC)c(C)c(-c5ccc(F)cc5)c4=O)cc3F)ccnc2c1 [Compound 475, 1-ethyl-5-(4-fluorophenyl)-N-[3-fluoro-4-[(7-prop-1-en-2-yl-1,5-naphthyridin-4-yl)oxy]phenyl]-6-methyl-4-oxopyridazine-3-carboxamide]
18 | < 100 | < 100 | < 100 | < 100 | C=C(C)c1cnc2c(Oc3ccc(NC(=O)c4nnc(C)c(-c5ccc(F)cc5)c4OCC)cc3F)ccnc2c1 [Compound 476, 4-ethoxy-5-(4-fluorophenyl)-N-[3-fluoro-4-[(7-prop-1-en-2-yl-1,5-naphthyridin-4-yl)oxy]phenyl]-6-methylpyridazine-3-carboxamide]
19 | < 100 | < 100 | > 300 | < 100 | C=C(C)c1cnc2c(Oc3ccc(NC(=O)c4nn(C)c(C)c(-c5ccc(F)cc5)c4=O)cc3F)ccnc2c1 [Compound 477, 5-(4-fluorophenyl)-N-[3-fluoro-4-[(7-prop-1-en-2-yl-1,5-naphthyridin-4-yl)oxy]phenyl]-1,6-dimethyl-4-oxopyridazine-3-carboxamide]
20 | < 100 | < 100 | < 100 | < 100 | C=C(C)c1cnc2c(Oc3ccc(NC(=O)c4nnc(C)c(-c5ccc(F)cc5)c4OC)cc3F)ccnc2c1 [Compound 478, 5-(4-fluorophenyl)-N-[3-fluoro-4-[(7-prop-1-en-2-yl-1,5-naphthyridin-4-yl)oxy]phenyl]-4-methoxy-6-methylpyridazine-3-carboxamide]
21 | < 100 | < 100 | < 100 | < 100 | COCCOc1cc2nccc(Oc3ccc(NC(=O)c4ccc(C)n(-c5ccc(F)cc5)c4=O)cc3F)c2nc1OC [Compound 484, N-[3-fluoro-4-[[6-methoxy-7-(2-methoxyethoxy)-1,5-naphthyridin-4-yl]oxy]phenyl]-1-(4-fluorophenyl)-6-methyl-2-oxopyridine-3-carboxamide]
